The text below walks through data of patent US20250042908A1, “SALTS FOR MTOR COMPOUNDS” (GALDERMA HOLDING S.A., priority 2022, published 2025).

Counter-ions that a name gives are not always drawn. Like-named read-outs stand apart in the source and are kept apart here.

Series [1] can be described thus: XRPD analysis of solid residues collected from the water solubility assay. Type of series: physicochemical. The conditions noted are these: solids in suspension in water collected after 24 h stirring, compared to material as received. As for the experimental part: XRPD analysis was conducted with a Bruker D8-Advance diffractometer, type: Bragg-Bentano. Source CuKα1, λ=1.5406 Å and CuKα2, λ2=1.54439 Å. Generator: 35 kV-40 mA. Detector: Lynx Eye.
The sample was analyzed using the following protocol: Around 3 mg of the test compound delivered as solid material is gently grounded to homogenize the powder and deposed on zero-diffraction Silicon sample holder. The sample holder is then placed in the X-Ray Diffractometer chamber.
The copper anode X-ray source is turned on using a generator set at 35 kV voltage and at 40 mA intensity. While X-ray beam irradiates the sample, both X-ray source and X-ray detector move on the goniometer with equal 0 angle: diffractometer in Bragg-Brentano configuration. XRPD pattern is recorded in the [2°; 40°] 2θ angle range by step of 0.040 in 20 and for 1 second at each angle step.
(§1) The target concentration tested to measure the maximum solubility of the 3 salts (phosphate, malonate and malate) and free base in 6 different media was 30 mg/ml. Solids in suspension in water solubility assays have been collected by centrifugation (15 min at 18000 rpm) after 24 h stirring for XRPD analysis. Recorded XRPD patterns have been compared to the one recorded for the salts or free base as received (see FIGS. 8-11).

A short description of series [2]: Solubility of free base and salts in 6 different media (UPLC-UV). The following applies: target concentration 30 mg/ml; for solubility at 24 h: thermodynamic from solid. Type of series: physicochemical. On the procedure: The following protocol has been used to prepare samples for solubility measurements at room temperature in the 6 different media. First, weigh appropriate amount of each salt and free base compound to reach the desired target concentration (30 mg/ml). Addition at room temperature the studied media to reach the selected target concentration, follow by orbital stirring at room temperature for 24 h, while protected from light. Except for the glycerin medium, separation of the soluble fraction from the non-soluble fraction is performed by centrifugation (15 min at 18000 rpm) followed by filtration on PTFE 0.45 μm membrane. For the glycerin medium, 3 steps of centrifugation (15 mw at 18000 rpm) to collect the supernatant was performed. The resulting filtrates and supernatant for glycerin medium were diluted in appropriate solvents described in the following table to be in the range of calibration curve. Quantification of the diluted and undiluted samples was performed using UPLC-UV.
A standard calibration curve (chromatographic UV peak area vs concentration) between 0.5 μg/mL and 500 μg/mL was established in DMSO according to the following protocol. First, weighing 1 mg free base, then addition of DMSO until a 1 mg/mL clear DMSO Stock solution is obtained. Next, selected compound DMSO solutions at 5 different concentrations (500 ag/mL, 250 ag/mL, 100 ag/ml, 25 μg/ml and 0.5 μg/mL) were prepared by dilution with pure DMSO.
Samples were analysed by UPLC-UV-MS according to the following: (a) Instrument: Waters Acquity H-Class with PDA and QDa detectors; (b) Column: Waters Acquity BEH C18, 1.7 m, 2.1×50 mm; (c) Flow rate: 0.65 ml/min; (d) UV detection: 220 nm, 254 nm, 290 nm; (e) Column temperature: 40° C.; (f) Injection volume: 0.4 μl; (g) Mobile phase: Gradient with solutions A and B prepared according to Table 6; (h) Ionisation mode: ESI+/ESI−; (i) Source temperature: 600° C.; (j) Capillary voltage: 0.8 kV; and (k) Cone voltage: +20V/−20V.
as §1

Series [3] is described as follows: In vitro permeation testing in Franz cells. The following applies: human abdominal skin, Franz cell. Type of series: in vitro ADME. On the procedure:
In vitro permeation testing was performed using human abdominal skin from 3 donors and 2 samples per donor with a thickness of 400 μm (±100 μm). The samples were used in Franz cell 2 cm^2 of diameter and a receptor volume of 3 mL (PBS+4% BSA (Bovine Serum Albumin).
The receptor compartment was surrounded by a water jacket heated to 37° C.±1° C. insuring a skin surface temperature of 32° C.±1° C. The receptor compartment is separated from the donor compartment by the skin membrane where the epidermis side faces the donor. Receptor compartments containing magnetic stirrer bar, were filled with the receptor fluid in such a way to prevent any formation of air-bubbles. During the diffusion experiment, receptor fluids were continuously stirred in order to ensure homogenization.
Abdominal skins from aesthetic surgery were used in this study. Skins, upon arrival, were separated from hypodermis with the help of tweezers and a scalpel blade. Skins were gently washed and stored flat in aluminum foil for freezing at −20° C. At the day of experiment, skins were thawed then cut in smaller pieces to fit with diffusion cell geometry. In this experiment three donors were used. Skin specimens were mounted onto Franz diffusion cells with PBS+4% Bovine Serum Albumin as a receptor fluid. […]
Following at least 45 min equilibrium with receptor fluid, skin integrity is assessed by Transepidermal Water Loss (TEWL) measurements. […] TEWL is again measured and cells still depicting a high water flux are recorded. […] Individual TEWL values for each skin specimen used, room temperature and relative humidity were also recorded.
Test Items were applied at a dose of 5 mg/cm^2 for 24 hours on the skin samples in the Franz cell. At the end of exposure, the following samples were recovered: Stratum corneum (not analysed), epidermis, dermis and receptor fluid were collected analysed for API content.
The samples were analyzed following LC/MS/MS method internally certified. […] Percutaneous fluxes were calculated as the ratio of permeated amounts in receptor fluid (RF) of each individual cell to the duration of exposure (24 h).

The mark [4] stands for this setting: Glycerin/Water 5/95 (v/v), aqueous with cosolvent or surfactant or cyclodextrin, Glycerin/Water 5/95 (v/v), room temperature, 24 h, read-out: Solubility, Glycerin/Water 5/95 (v/v).
[5] abbreviates: Glycerin/Water 10/90 (v/v), aqueous with cosolvent or surfactant or cyclodextrin, Glycerin/Water 10/90 (v/v), room temperature, 24 h, read-out: Solubility, Glycerin/Water 10/90 (v/v).
Where [6] appears, read: Glycerin/Water 20/80 (v/v), aqueous with cosolvent or surfactant or cyclodextrin, Glycerin/Water 20/80 (v/v), room temperature, 24 h, read-out: Solubility, Glycerin/Water 20/80 (v/v).
The mark [7] stands for this setting: Transcutol/Water 10/90 (v/v), aqueous with cosolvent or surfactant or cyclodextrin, Transcutol/Water 10/90 (v/v), room temperature, 24 h, read-out: Solubility, Transcutol/Water 10/90 (v/v).
The mark [8] stands for this setting: glycerin, organic solvent or mixture, glycerin, room temperature, 24 h, read-out: Solubility, Glycerin.
[9] abbreviates: water, water, orbital stirring at room temperature for 24 h, read-out: Solubility, Water.
Where [10] appears, read: Glycerin/Water 5/95 (v/v), room temperature, 24 h.
Setting [11] is: Glycerin/Water 10/90 (v/v), room temperature, 24 h.
Where [12] appears, read: Glycerin/Water 20/80 (v/v), room temperature, 24 h.
The mark [13] stands for this setting: Transcutol/Water 10/90 (v/v), room temperature, 24 h.
The mark [14] stands for this setting: glycerin, room temperature, 24 h.
Where [15] appears, read: water, orbital stirring at room temperature for 24 h.
The mark [16] stands for this setting: 5 mg/cm^2 for 24 hours, 0.63 w/w % phosphate salt vs 0.5 w/w % free base.

`CC(C)CC(C)n1nc(-c2ccc3oc(N)nc3c2)c2c(N)nc(N)nc21.O=C(O)CC(=O)O` (stereo not shown) [Malonate Salt]: the “XRPD of solid residues in water” value in series [1] is listed as “Crystalline Phase conversion”. Besides, the solubility at 24 h in series [2] (setting [4]) came to 2700 ± 200 µg/mL; in series [2] (setting [5]) it was 2900 ± 200 µg/mL; in series [2] (setting [6]), 3500 ± 200 µg/mL; in series [2] (setting [7]), 3700 ± 200 µg/mL; in series [2] (setting [8]) it was 24700 ± 300 µg/mL; in series [2] (setting [9]), 2200 µg/mL.

Take `CC(C)CC(C)n1nc(-c2ccc3oc(N)nc3c2)c2c(N)nc(N)nc21.O=C(O)C[C@H](O)C(=O)O` (stereo not shown) [Malate Salt]: the “XRPD of solid residues in water” value in series [1] was “No crystalline phase conversion”. For the same molecule, the solubility at 24 h in series [2] (setting [4]) was determined as 2100 ± 300 µg/mL; in series [2] (setting [5]) it was 2200 ± 200 µg/mL; in series [2] (setting [6]), 2900 ± 200 µg/mL; in series [2] (setting [7]) it was 3100 ± 300 µg/mL; in series [2] (setting [8]), 21100 ± 200 µg/mL; in series [2] (setting [9]), 1600 µg/mL.

As for `CC(C)CC(C)n1nc(-c2ccc3oc(N)nc3c2)c2c(N)nc(N)nc21` (stereo not shown) [Free Base, 3-(2-Amino-1,3-benzoxazol-5-yl)-1-(1,3-dimethylbutyl)pyrazolo[3,4-d]pyrimidine-4,6-diamine], in series [1], the “XRPD of solid residues in water” value is listed as “No crystalline phase conversion”. Also, in series [2] (setting [10]), the “Solubility, Glycerin/Water 5/95 (v/v)” value was 29 µg/mL. Besides, the “Solubility, Glycerin/Water 10/90 (v/v)” value in series [2] (setting [11]) stood at 45 µg/mL. The “Solubility, Glycerin/Water 20/80 (v/v)” value in series [2] (setting [12]) stood at 71 µg/mL. The “Solubility, Transcutol/Water 10/90 (v/v)” value in series [2] (setting [13]) came to 256 µg/mL. For the same molecule, the “Solubility, Glycerin” value in series [2] (setting [14]) came to 6400 ± 300 µg/mL. Also, in series [2] (setting [15]), the “Solubility, Water” value was 180 µg/mL.

Consider `CC(C)CC(C)n1nc(-c2ccc3oc(N)nc3c2)c2c(N)nc(N)nc21` (stereo not shown) [Phosphate Salt], for which, in series [3] (setting [16]), the “ratio of percutaneous flux over dermis concentration, phosphate salt compared to free base” value is recorded as “over 600 times” and the “skin permeability coefficient (Kp), phosphate salt relative to free base” value came to 3 times. The “permeability of formulation compared to free base formulation” value in series [3] (24 hours, 10% w/w propylene glycol of the free base formulation replaced with water) is given as “superior permeability”. For the same molecule, the “XRPD of solid residues in water” value in series [1] was “No crystalline phase conversion”. Also, the “Solubility, Glycerin/Water 5/95 (v/v)” value in series [2] (setting [10]) worked out at 4300 ± 200 µg/mL. Further, in series [2] (setting [11]), the “Solubility, Glycerin/Water 10/90 (v/v)” value was determined as 4700 ± 200 µg/mL. In series [2] (setting [12]), the “Solubility, Glycerin/Water 20/80 (v/v)” value is 5700 ± 200 µg/mL. Further, in series [2] (setting [13]), the “Solubility, Transcutol/Water 10/90 (v/v)” value is 5500 ± 200 µg/mL. Further, the “Solubility, Glycerin” value in series [2] (setting [14]) turned out to be 15800 ± 300 µg/mL. For the same molecule, the “Solubility, Water” value in series [2] (setting [15]) came out at 3900 ± 200 µg/mL.
